The text below walks through data of patent publication US20200062696A1, “COMPOSITIONS AND METHODS FOR INHIBITING RETICULON 4” (THE REGENTS OF THE UNIVERSITY OF CALIFORNIA, priority 2017, published 2020).

SMILES strings stand for the structures.

Assay [1] has as its system SW620 colorectal cancer cells. The experiment in a line: Cell proliferation of SW620 cells (Hoescht staining). The conditions noted are these: Homo sapiens, SW-620, cysteine-reactive fragment 50 μM, 48 h, vs DMSO, average of n = 3/group, read-out: SW620 proliferation Ave. Type of assay: cell-based. The method, then:
(§1) Cell Culture. SW620 cells were purchased from ATCC. SW620 cells were grown in L-15 media with 10% fetal bovine serum (FBS) in ambient CO2. U2OS cells were grown in DMEM media supplemented with 10% FBS at 37° C. with 5% CO2.
(§2) Survival and Proliferation Assays. Cells were plated the evening before the experiment, and allowed to adhere overnight. For serum-free cell survival assays, cells were plated in media not containing FBS. For cell proliferation assays, cells were plated in regular media. For the chemical genetics screen, cells were treated with either DMSO or the cysteine-reactive fragment for 48 h and cell viability was assessed by Hoescht stain using our previously described methods

The test system of assay [2] is SW620 colorectal cancer cells. The experiment in a line: Serum-free cell survival of SW620 cells (Hoescht staining). It is filed as cell-based. Conditions: Homo sapiens, SW-620, cysteine-reactive fragment 50 μM, 48 h, vs DMSO, average of n = 3/group, read-out: SW620 survival Ave. How it is done:
as §1, §2

As to `C=CC(=O)NCC(OCC)OCC` [DKM 3-9, N-(2,2-diethoxyethyl)acrylamide], the activity at 50 µM in assay [1] is 100%. In addition, the viability at 50 µM in assay [2] was 75%.

`C=CC(=O)Nc1ccc(SC)cc1` [DKM 3-10, N-(4-(methylthio)phenyl)acrylamide]: the activity at 50 µM in assay [1] is 79%. The viability at 50 µM in assay [2] is 41%.

Turning to `C=CC(=O)N1CCC(C#N)CC1` [DKM 3-11, 1-acryloylpiperidine-4-carbonitrile], the activity at 50 µM in assay [1] is 118%. In addition, in assay [2], the viability at 50 µM was found to be 120%.

Take `C=CC(=O)NCCCSC` [DKM 3-12, N-(3-(methylthio)propyl)acrylamide]: in assay [1], the activity at 50 µM came out at 106%. Also, the viability at 50 µM in assay [2] came out at 129%.

For `C=CC(=O)NCC1CCCCC1` [DKM 3-13, N-(cyclohexylmethyl)acrylamide], in assay [1], the activity at 50 µM was 94%. For the same molecule, the viability at 50 µM in assay [2] was found to be 77%.

`C=CC(=O)Nc1ccc(-c2ccc(CC)cc2)cc1` [DKM 3-16, N-(4′-ethyl-[1,1′-biphenyl]-4-yl)acrylamide]: in assay [1], the activity at 50 µM amounted to 60%. The viability at 50 µM in assay [2] worked out at 34%.

Turning to `C=CC(=O)N1CCN(c2ccc(C(C)=O)cc2)CC1` [DKM 3-29, 1-(4-(4-acetylphenyl)piperazin-1-yl)prop-2-en-1-one], the activity at 50 µM in assay [1] is 121%. The viability at 50 µM in assay [2] turned out to be 79%.

With `C=CC(=O)Nc1ccc(F)cc1` [DKM 3-31, N-(4-fluorophenyl)acrylamide], the activity at 50 µM in assay [1] came out at 99%. In addition, in assay [2], the viability at 50 µM is 65%.

With `C=CC(=O)NC(C)CC` (stereo not drawn) [DKM 3-32, N-(sec-butyl)acrylamide], in assay [1], the activity at 50 µM amounted to 95%. The viability at 50 µM in assay [2] amounted to 70%.

In the case of `C=CC(=O)N1CCN(c2ccc(OC)cc2)CC1` [DKM 3-36, 1-(4-(4-methoxyphenyl)piperazin-1-yl)prop-2-en-1-one], in assay [1], the activity at 50 µM stood at 97%. Also, the viability at 50 µM in assay [2] was 54%.

Regarding `C=CC(=O)NC(c1ccccc1)(c1ccccc1)c1ccccc1` [DKM 3-41, N-tritylacrylamide], in assay [1], the activity at 50 µM was 93%. Also, in assay [2], the viability at 50 µM amounted to 55%.

Consider `C=CC(=O)NC/C=C(\C)CCC=C(C)C` [DKM 3-42, (E)-N-(3,7-dimethylocta-2,6-dien-1-yl)acrylamide], for which the activity at 50 µM in assay [1] turned out to be 112%. For the same molecule, the viability at 50 µM in assay [2] came out at 104%.

`C=CC(=O)NCc1ccc2c(c1)OCO2` [DKM 3-43, N-(benzo[d][1,3]dioxol-5-ylmethyl)acrylamide]: in assay [1], the activity at 50 µM was 94%. Moreover, the viability at 50 µM in assay [2] came to 52%.

With `C=CC(=O)N(c1ccccc1)c1ccccc1` [DKM 3-70, N,N-diphenylacrylamide], the activity at 50 µM in assay [1] amounted to 53%. Further, the viability at 50 µM in assay [2] stood at 57%.

Consider `C=CC(=O)NCCCCCCCCCC` [TRH 1-12, N-decylacrylamide], for which, in assay [1], the activity at 50 µM was found to be 89%. Also, in assay [2], the viability at 50 µM came to 49%.

`C=CC(=O)NCc1ccc(OC)cc1OC` [TRH 1-13, N-(2,4-dimethoxybenzyl)acrylamide]: the activity at 50 µM in assay [1] was 128%. The viability at 50 µM in assay [2] turned out to be 94%.

Consider `C=CC(=O)Nc1ccccc1` [TRH 1-19, N-Phenylacrylamide], for which the activity at 50 µM in assay [1] is 119%. The viability at 50 µM in assay [2] was determined as 101%.

With `C=CC(=O)NC(C)c1ccccc1` (stereo not drawn) [TRH 1-20, N-(1-phenylethyl)acrylamide], the activity at 50 µM in assay [1] is 121%. Besides, in assay [2], the viability at 50 µM came out at 114%.

Regarding `C=CC(=O)N1CCCCC1CC` (stereo not drawn) [TRH 1-27, 1-(2-ethylpiperidin-1-yl)prop-2-en-1-one], the activity at 50 µM in assay [1] was determined as 125%. The viability at 50 µM in assay [2] turned out to be 144%.

Turning to `C=CC(=O)Nc1ccc(OC)cc1` [TRH 1-32, N-(4-methoxyphenyl)acrylamide], the activity at 50 µM in assay [1] came out at 100%. Moreover, in assay [2], the viability at 50 µM worked out at 55%.

In the case of `C=CC(=O)Nc1ccc(C(F)(F)F)cc1` [TRH 1-50, N-(4-(trifluoromethyl)phenyl)acrylamide], the activity at 50 µM in assay [1] came out at 76%. Further, the viability at 50 µM in assay [2] stood at 58%.
